For experiment [1], the target named is T1, GST fusion human ERK2 protein (Homo sapiens, UniProt P28482).
T1 construct: purchased Carna Biosciences, Inc; host or cells: E. coli expression system
As to the kind of experiment: ERK2 enzyme assay (2). In kind it is biochemical. To be noted: ERK2 enzyme assay (2); read-out: ERK2 enzyme inhibitory activity (2). A digest of the protocol: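 IC50 values come from mobility-shift measurement of phosphorylated versus unphosphorylated 5-FAM peptide substrate after EDTA quench. Beforehand, compound and 1.25 nmol/L E. coli-expressed GST–human ERK2 stood 15 min at room temperature (pH 7.5), then 1 mmol/L ATP and 4.25 μmol/L substrate (final) were added for 120 min at 25 °C.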

The target of a further experiment is T2, human PI3Kα protein (Homo sapiens, UniProt P42336).
T2 construct: purchased Carna Biosciences, Inc; host or cells: baculovirus expression system
T2 sequence (P42336 whole entry): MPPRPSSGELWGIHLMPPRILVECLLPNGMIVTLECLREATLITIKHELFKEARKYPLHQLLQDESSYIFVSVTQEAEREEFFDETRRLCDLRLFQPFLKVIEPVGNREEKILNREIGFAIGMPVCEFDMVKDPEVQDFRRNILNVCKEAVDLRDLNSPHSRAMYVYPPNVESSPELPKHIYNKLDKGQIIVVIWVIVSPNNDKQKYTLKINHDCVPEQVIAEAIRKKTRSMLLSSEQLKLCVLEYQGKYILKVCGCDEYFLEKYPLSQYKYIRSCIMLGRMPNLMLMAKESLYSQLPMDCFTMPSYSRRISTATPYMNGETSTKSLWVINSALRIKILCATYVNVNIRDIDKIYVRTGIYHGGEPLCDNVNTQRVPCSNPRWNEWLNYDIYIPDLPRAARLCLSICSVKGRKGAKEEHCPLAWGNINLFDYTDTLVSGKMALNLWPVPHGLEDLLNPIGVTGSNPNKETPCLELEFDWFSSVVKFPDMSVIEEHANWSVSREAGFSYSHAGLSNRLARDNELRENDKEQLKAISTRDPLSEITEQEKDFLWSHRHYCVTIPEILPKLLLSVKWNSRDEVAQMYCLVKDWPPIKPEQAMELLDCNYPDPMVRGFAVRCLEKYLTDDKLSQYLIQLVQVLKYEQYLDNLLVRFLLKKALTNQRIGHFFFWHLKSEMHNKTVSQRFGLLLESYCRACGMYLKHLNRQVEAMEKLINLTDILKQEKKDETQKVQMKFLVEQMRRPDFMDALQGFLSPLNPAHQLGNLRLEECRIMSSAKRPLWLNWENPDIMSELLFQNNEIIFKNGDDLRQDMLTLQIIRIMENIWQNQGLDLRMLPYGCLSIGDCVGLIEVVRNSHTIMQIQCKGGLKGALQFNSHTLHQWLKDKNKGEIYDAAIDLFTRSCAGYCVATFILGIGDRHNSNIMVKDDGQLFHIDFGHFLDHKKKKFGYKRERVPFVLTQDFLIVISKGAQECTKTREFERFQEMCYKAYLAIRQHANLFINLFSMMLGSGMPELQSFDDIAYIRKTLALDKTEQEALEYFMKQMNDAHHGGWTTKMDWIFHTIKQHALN
T2 sequence (P27986 whole entry partner): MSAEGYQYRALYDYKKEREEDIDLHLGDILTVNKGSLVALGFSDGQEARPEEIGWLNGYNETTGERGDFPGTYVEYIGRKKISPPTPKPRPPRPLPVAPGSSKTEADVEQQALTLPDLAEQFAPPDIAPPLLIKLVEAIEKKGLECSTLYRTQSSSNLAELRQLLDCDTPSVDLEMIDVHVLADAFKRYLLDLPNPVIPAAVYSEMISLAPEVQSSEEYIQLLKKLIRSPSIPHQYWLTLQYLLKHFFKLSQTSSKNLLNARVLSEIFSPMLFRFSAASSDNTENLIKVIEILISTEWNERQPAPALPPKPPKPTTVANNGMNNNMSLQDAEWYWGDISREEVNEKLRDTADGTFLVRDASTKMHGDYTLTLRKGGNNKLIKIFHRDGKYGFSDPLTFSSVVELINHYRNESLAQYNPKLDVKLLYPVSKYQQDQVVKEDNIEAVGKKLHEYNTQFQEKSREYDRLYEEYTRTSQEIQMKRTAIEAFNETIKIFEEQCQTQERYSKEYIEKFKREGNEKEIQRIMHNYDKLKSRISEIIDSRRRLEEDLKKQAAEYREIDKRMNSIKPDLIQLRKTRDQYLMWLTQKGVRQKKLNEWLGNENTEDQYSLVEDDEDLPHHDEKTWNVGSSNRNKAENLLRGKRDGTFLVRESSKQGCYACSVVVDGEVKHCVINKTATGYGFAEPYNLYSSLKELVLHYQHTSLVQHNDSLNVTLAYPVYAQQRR
Briefly: PI3Kα enzyme assay (ADP-Glo). It counts as biochemical. The note with it: read-out: PI3Kα enzyme inhibitory activity. The procedure, abridged: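 Biotinylated human PI3Kα (baculovirus-expressed, 4.5 nmol/L) pre-incubated 15 min with compound in Tris-HCl pH 7.5, MgCl2, BSA; reaction 60 min at 25° C with 50 μmol/L PIP2 and 100 μmol/L ATP final. ADP quantified by ADP-Glo luminescence; IC50 calculated.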
In general terms: ADP-Glo first removes unused ATP, then detects ADP through luciferase.

SMILES strings stand for the structures.

T1 sequence (P28482 whole entry, the tested form may be a part): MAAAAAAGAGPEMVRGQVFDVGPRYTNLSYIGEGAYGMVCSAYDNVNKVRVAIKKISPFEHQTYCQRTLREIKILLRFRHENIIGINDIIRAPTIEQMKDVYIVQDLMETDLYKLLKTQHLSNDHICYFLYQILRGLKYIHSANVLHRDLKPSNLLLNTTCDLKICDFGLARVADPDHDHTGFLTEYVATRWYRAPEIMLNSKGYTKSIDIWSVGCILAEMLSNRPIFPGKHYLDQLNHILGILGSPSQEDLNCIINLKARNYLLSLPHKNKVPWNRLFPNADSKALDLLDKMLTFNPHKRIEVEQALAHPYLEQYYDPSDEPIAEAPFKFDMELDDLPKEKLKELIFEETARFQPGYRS

In the case of `CC(C)c1cnnc(Nc2ccc3ncc(-c4cnn(C)c4-c4cccnc4)cc3n2)c1` [Example 0575], the IC50 (in experiment [1]; on human PI3Kα protein) was less than 1000 nM in each case.

As for `Cn1cc(-c2cnc3ccc(Nc4cc(C5CCC5)cnn4)nc3c2)cn1` [Example 0577, N-(5-cyclobutylpyridazin-3-yl)-7-(1-methyl-1H-pyrazol-4-yl)-1,5-naphthyridine-2-amine], the IC50 (in experiment [1]; at human PI3Kα protein) was less than 1000 nM each time.

As for `CC(C)c1cnnc(Nc2ccc3ncc(-c4scnc4-c4cccnc4)cc3n2)c1` [Example 0578], the IC50 (in experiment [1]; on human PI3Kα protein) was less than 1000 nM each time.

As for `CC(C)c1cnnc(Nc2ccc3ncc(-c4cn(C)nc4-c4ccccc4)cc3n2)c1` [Example 0579], the IC50 (in experiment [1]; on human PI3Kα protein) was less than 1000 nM throughout.

As to `CC(C)c1cnnc(Nc2ccc3ncc(C4=CCOCC4)cc3n2)c1` [Example 0580], the IC50 (in experiment [1]; at human PI3Kα protein) was less than 1000 nM throughout.

In the case of `CC(C)c1cnnc(Nc2ccc3ncc(-c4cnn(CC5CC5)c4)cc3n2)c1` [Example 0581], the IC50 (in experiment [1]; at human PI3Kα protein) was less than 1000 nM throughout.

`CC(C)c1cnnc(Nc2ccc3ncc(-c4cn(C)nc4-c4cnn(C)c4)cc3n2)c1` [Example 0582]: the IC50 (in experiment [1]; on human PI3Kα protein) was less than 1000 nM in each case.

As for `COc1ccc(-c2nn(C)cc2-c2cnc3ccc(Nc4cc(C(C)C)cnn4)nc3c2)cc1` [Example 0584], the IC50 (in experiment [1]; on human PI3Kα protein) was less than 1000 nM throughout.

On to `CCC(CC)c1cnnc(Nc2ccc3ncc(-c4cnn(C)c4)cc3n2)c1` [Example 0585], for which the IC50 (in experiment [1]; on human PI3Kα protein) was less than 1000 nM in each case.

With `Cn1cc(-c2cnc3ccc(Nc4cc(CC5CCCCC5)cnn4)nc3c2)cn1` [Example 0586], the IC50 (in experiment [1]; at human PI3Kα protein) was less than 1000 nM in each case.

With `Cc1ncc(-c2nn(C)cc2-c2cnc3ccc(Nc4cc(C(C)C)cnn4)nc3c2)s1` [Example 0587], the IC50 (in experiment [1]; on human PI3Kα protein) was less than 1000 nM each time.

On to `COc1ccc(-c2cnc3ccc(Nc4cc(C(C)C)cnn4)nc3c2)cn1` [Example 0590], for which the IC50 in experiment [1] was less than 1000 nM; on human PI3Kα protein, 1000 to 10000 nM.

In the case of `COc1ncccc1-c1cnc2ccc(Nc3cc(C(C)C)cnn3)nc2c1` [Example 0591], the IC50 in experiment [1] is less than 1000 nM; on human PI3Kα protein, 1000 to 10000 nM.

As to `CC(C)c1cnnc(Nc2ccc3ncc(-c4ccc(O)nc4)cc3n2)c1` [Example 0592], the IC50 (in experiment [1]; at human PI3Kα protein) was less than 1000 nM each time.

Turning to `CC(C)c1cnnc(Nc2ccc3ncc(-c4cccnc4O)cc3n2)c1` [Example 0593], the figures for the IC50 (in experiment [1]; on human PI3Kα protein) were less than 1000 nM and 1000 to 10000 nM, respectively.

`CC(C)c1cnnc(Nc2ccc3ncc(-c4ccc(=O)n(C)c4)cc3n2)c1` [Example 0594, 5-(6-((5-isopropylpyridazin-3-yl)amino)-1,5-naphthyridin-3-yl)-1-methylpyridin-2(1H)-one]: the IC50 (in experiment [1]; at human PI3Kα protein) was less than 1000 nM throughout.

As for `CC(C)c1cnnc(Nc2ccc3ncc(-c4cccn(C)c4=O)cc3n2)c1` [Example 0595, 3-(6-((5-Isopropylpyridazin-3-yl)amino)-1,5-naphthyridin-3-yl)-1-methylpyridin-2(1H)-one], the IC50 in experiment [1] was less than 1000 nM; on human PI3Kα protein, 1000 to 10000 nM.

With `CCn1cc(-c2cnc3ccc(Nc4cc(C(C)C)cnn4)nc3c2)ccc1=O` [Example 0596, 1-ethyl-5-(6-((5-isopropylpyridazin-3-yl)amino)-1,5-naphthyridin-3-yl)pyridin-2(1H)-one], the IC50 (in experiment [1]; at human PI3Kα protein) was less than 1000 nM throughout.

`Cc1ccc(-c2cnc3ccc(Nc4cc(C(C)C)cnn4)nc3c2)cn1` [Example 0597]: the IC50 in experiment [1] is less than 1000 nM; on human PI3Kα protein it was 1000 to 10000 nM.

Consider `Cc1cncc(-c2cnc3ccc(Nc4cc(C(C)C)cnn4)nc3c2)c1` [Example 0598], for which the IC50 was less than 1000 nM in experiment [1] and 1000 to 10000 nM on human PI3Kα protein.

On to `Cc1ncccc1-c1cnc2ccc(Nc3cc(C(C)C)cnn3)nc2c1` [Example 0599], for which the IC50 in experiment [1] is less than 1000 nM; at human PI3Kα protein it was 1000 to 10000 nM.

`Cc1ccncc1-c1cnc2ccc(Nc3cc(C(C)C)cnn3)nc2c1` [Example 0600]: the IC50 in experiment [1] was less than 1000 nM; at human PI3Kα protein, 1000 to 10000 nM.

Consider `c1cnnc(Nc2ccc3ncc(-c4cnn(CCCN5CCOCC5)c4)cc3n2)c1` [Example 0601, 7-(1-(3-Morpholinopropyl)-1H-pyrazol-4-yl)-N-(pyridazin-3-yl)-1,5-naphthyridine-2-amine], for which the IC50 in experiment [1] was less than 1000 nM; at human PI3Kα protein it was 1000 to 10000 nM.

Turning to `CC(C)c1cnnc(Nc2ccc3ncc(-c4ccnc(N)c4)cc3n2)c1` [Example 0602, 7-(2-aminopyridin-4-yl)-N-(5-isopropylpyridazin-3-yl)-1,5-naphthyridine-2-amine], the IC50 (in experiment [1]; on human PI3Kα protein) was less than 1000 nM each time.

As to `CC(C)c1cnnc(Nc2ccc3ncc(-c4ccn(C)c(=O)c4)cc3n2)c1` [Example 0603], the IC50 (in experiment [1]; on human PI3Kα protein) was less than 1000 nM throughout.

Consider `CC(C)c1cnnc(Nc2ccc3ncc(-c4cncnc4)cc3n2)c1` [Example 0604], for which the IC50 is less than 1000 nM in experiment [1] and 10000 to 50000 nM on human PI3Kα protein.

Regarding `CC(C)c1cnnc(Nc2ccc3ncc(-c4ncccn4)cc3n2)c1` [Example 0605], the IC50 (in experiment [1]; on human PI3Kα protein) was less than 1000 nM each time.

On to `CC(C)c1cnnc(Nc2ccc3ncc(-c4cnccn4)cc3n2)c1` [Example 0606], for which the figures for the IC50 (in experiment [1]; on human PI3Kα protein) were less than 1000 nM and 1000 to 10000 nM, respectively.

As for `CC(C)c1cnnc(Nc2ccc3ncc(-c4cnn(CCCN5CCOCC5C)c4)cc3n2)c1` (centres unmarked) [Example 0607, N-(5-isopropylpyridazin-3-yl)-7-(1-(3-(3-methylmorpholino)propyl)-1H-pyrazol-4-yl)-1,5-naphthyridine-2-amine], the IC50 (in experiment [1]; at human PI3Kα protein) was less than 1000 nM each time.

With `CC1CN(CCCn2cc(-c3cnc4ccc(Nc5cc(C(C)C)cnn5)nc4c3)cn2)CCO1` (centres unmarked) [Example 0608], the IC50 (in experiment [1]; on human PI3Kα protein) was less than 1000 nM in each case.

Regarding `CC(C)c1cnnc(Nc2ccc3ncc(-c4cnn(CCN5CCCCC5)c4)cc3n2)c1` [Example 0609, N-(5-isopropylpyridazin-3-yl)-7-(1-(2-(piperidin-1-yl)ethyl)-1H-pyrazol-4-yl)-1,5-naphthyridine-2-amine], the IC50 (in experiment [1]; at human PI3Kα protein) was less than 1000 nM throughout.

As for `C=Cn1cc(-c2cnc3ccc(Nc4cc(C(C)C)cnn4)nc3c2)cn1` [Example 0610, N-(5-isopropylpyridazin-3-yl)-7-(1-vinyl-1H-pyrazol-4-yl)-1,5-naphthyridine-2-amine], the IC50 (in experiment [1]; on human PI3Kα protein) was less than 1000 nM throughout.

For the compound `CC(C)c1cnnc(Nc2ccc3ncc(-c4cnn(CCN5CCC5)c4)cc3n2)c1` [Example 0611], the IC50 (in experiment [1]; on human PI3Kα protein) was less than 1000 nM throughout.

In the case of `CC(C)c1cnnc(Nc2ccc3ncc(-c4cnn(CCN5CC(O)C5)c4)cc3n2)c1` [Example 0612], the IC50 (in experiment [1]; at human PI3Kα protein) was less than 1000 nM in each case.

`CC(C)c1cnnc(Nc2ccc3ncc(-c4cnn(CCN5C[C@H](C)O[C@@H](C)C5)c4)cc3n2)c1` [Example 0616, 7-(1-(2-((2S,6S)-2,6-dimethylmorpholino)ethyl)-1H-pyrazol-4-yl)-N-(5-isopropylpyridazin-3-yl)-1,5-naphthyridine-2-amine]: the IC50 (in experiment [1]; at human PI3Kα protein) was less than 1000 nM in each case.

As for `CC(C)c1cnnc(Nc2ccc3ncc(-c4cnn(CCN5C[C@@H](C)O[C@@H](C)C5)c4)cc3n2)c1` [Example 0617, 7-(1-(2-((2S,6R)-2,6-dimethylmorpholino)ethyl)-1H-pyrazol-4-yl)-N-(5-isopropylpyridazin-3-yl)-1,5-naphthyridine-2-amine], the IC50 (in experiment [1]; at human PI3Kα protein) was less than 1000 nM throughout.

Turning to `CC(C)c1cnnc(Nc2ccc3ncc(-c4ccc(=O)n(CCCN5CCOCC5)c4)cc3n2)c1` [Example 0618], the IC50 (in experiment [1]; on human PI3Kα protein) was less than 1000 nM in each case.

Turning to `CC(C)c1cnnc(Nc2ccc3ncc(-c4cnn(CCN5CC6(COC6)C5)c4)cc3n2)c1` [Example 0619, 7-(1-(2-(2-Oxa-6-azaspiro[3.3]heptan-6-yl)ethyl)-1H-pyrazol-4-yl)-N-(5-isopropylpyridazin-3-yl)-1,5-naphthyridine-2-amine], the IC50 (in experiment [1]; on human PI3Kα protein) was less than 1000 nM in each case.

As for `CC(C)c1cnnc(Nc2ccc3ncc(-c4cncs4)cc3n2)c1` [Example 0620], the IC50 (in experiment [1]; on human PI3Kα protein) was less than 1000 nM throughout.

Take `Cc1n[nH]c(C)c1-c1cnc2ccc(Nc3cc(C(C)C)cnn3)nc2c1` [Example 0621]: the values for the IC50 (in experiment [1]; at human PI3Kα protein) were less than 1000 nM and 1000 to 10000 nM, respectively.

With `CC(C)c1cnnc(Nc2ccc3ncc(-c4ccn[nH]4)cc3n2)c1` [Example 0622, N-(5-isopropylpyridazin-3-yl)-7-(1H-pyrazol-5-yl)-1,5-naphthyridine-2-amine], the IC50 (in experiment [1]; on human PI3Kα protein) was less than 1000 nM throughout.

`CC(C)c1cnnc(Nc2ccc3ncc(N)cc3n2)c1` [Example 0623, N^2-(5-isopropylpyridazin-3-yl)-1,5-naphthyridine-2,7-diamine]: the IC50 (in experiment [1]; at human PI3Kα protein) was 1000 to 10000 nM each time.

For `Cc1nn(C)c(C)c1-c1cnc2ccc(Nc3cc(C(C)C)cnn3)nc2c1` [Example 0624, N-(5-isopropylpyridazin-3-yl)-7-(1,3,5-trimethyl-1H-pyrazol-4-yl)-1,5-naphthyridine-2-amine], the IC50 in experiment [1] is less than 1000 nM; on human PI3Kα protein it was 1000 to 10000 nM.
